Assays:
KDM7 (PHF8) = biological target: T1, KDM7 (PHF8) (Homo sapiens, UniProt Q9UPP1); assay: Histone lysine demethylase AlphaLISA assay, KDM7; assay type: biochemical; conditions: read-out: PHF8 HDME Inhibition IC50
T1 construct: KDM7 (PHF8); BRIC; 1-1322; Bac
In short: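 Biotinylated methylated H3 peptides (K9, K4, K27 or K36 marks) served as substrate, with 25 μM L-Asc and 10 μM α-KG. Enzymes were preincubated 10 min, then exposed to compounds (3% DMSO solutions) 10 min; product detected by AlphaLISA acceptor and streptavidin donor beads at room temperature in dark.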

KDM5B = biological target: T2, KDM5B (Homo sapiens, UniProt Q9UGL1); assay: Histone lysine demethylase immunofluorescence assay, U2OS cells transfected with KDM5B; assay type: cell-based; conditions: U2OS cells transfected with pCMVHA KDM5B; mark detected H3K4me2; 20 hours
T2 construct: (a.a. 1-752); host or cells: U2OS
T2 sequence (Q9UGL1 1-752): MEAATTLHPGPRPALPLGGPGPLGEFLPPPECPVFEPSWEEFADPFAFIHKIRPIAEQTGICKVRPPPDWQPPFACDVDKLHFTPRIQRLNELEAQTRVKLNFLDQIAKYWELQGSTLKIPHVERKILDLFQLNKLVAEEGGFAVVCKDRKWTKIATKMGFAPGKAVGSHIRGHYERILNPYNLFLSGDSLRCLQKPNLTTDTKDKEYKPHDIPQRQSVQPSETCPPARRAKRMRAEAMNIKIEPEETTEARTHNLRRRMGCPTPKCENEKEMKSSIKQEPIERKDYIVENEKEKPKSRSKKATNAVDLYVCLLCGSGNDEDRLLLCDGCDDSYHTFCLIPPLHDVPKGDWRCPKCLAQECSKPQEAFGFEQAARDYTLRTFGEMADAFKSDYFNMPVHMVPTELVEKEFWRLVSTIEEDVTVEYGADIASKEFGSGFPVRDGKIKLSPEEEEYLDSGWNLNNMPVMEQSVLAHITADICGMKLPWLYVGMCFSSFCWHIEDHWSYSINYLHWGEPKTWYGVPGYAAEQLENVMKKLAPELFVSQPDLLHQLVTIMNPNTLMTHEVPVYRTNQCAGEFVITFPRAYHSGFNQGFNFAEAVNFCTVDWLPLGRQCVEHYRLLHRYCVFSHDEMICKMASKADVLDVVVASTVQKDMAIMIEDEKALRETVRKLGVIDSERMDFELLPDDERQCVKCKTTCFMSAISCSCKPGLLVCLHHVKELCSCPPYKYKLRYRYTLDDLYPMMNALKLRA
In short: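 U2OS cells were transiently transfected with HA-tagged demethylase and reseeded after 6 h into compound-containing DMEM/10% FBS for 20 h. Cells were fixed in formaldehyde and immunostained for HA and the relevant histone methyl mark, then imaged. IC50 is based on mean mark staining in HA+ transfected cells.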

KDM4B (JMJD2B) = biological target: T3, KDM4B (JMJD2B) (Homo sapiens, UniProt O94953); assay: Histone lysine demethylase AlphaLISA assay, KDM4B; assay type: biochemical; conditions: read-out: KDM4B HDME Inhibition IC50
T3 construct: 2-500; purchased BPS; host or cells: Bac (baculovirus system)
T3 sequence (O94953 2-500): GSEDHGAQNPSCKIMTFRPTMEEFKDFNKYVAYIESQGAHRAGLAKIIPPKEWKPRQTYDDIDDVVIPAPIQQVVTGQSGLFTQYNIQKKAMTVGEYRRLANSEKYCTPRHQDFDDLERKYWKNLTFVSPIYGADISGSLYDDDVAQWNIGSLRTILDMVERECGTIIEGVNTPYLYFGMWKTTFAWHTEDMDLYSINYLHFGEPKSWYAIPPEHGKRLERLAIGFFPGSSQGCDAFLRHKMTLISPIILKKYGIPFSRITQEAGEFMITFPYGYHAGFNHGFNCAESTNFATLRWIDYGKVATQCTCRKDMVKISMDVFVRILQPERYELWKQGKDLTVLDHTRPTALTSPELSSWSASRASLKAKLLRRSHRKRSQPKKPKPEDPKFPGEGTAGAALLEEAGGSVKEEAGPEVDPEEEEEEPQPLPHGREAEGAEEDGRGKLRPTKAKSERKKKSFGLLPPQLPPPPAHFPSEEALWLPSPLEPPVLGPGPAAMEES
Protocol: Assays are performed analogously to the protocol described by PerkinElmer (Roy et al. PerkinElmer Technical Note: AlphaLISA #12, April 2011)
Enzymes are dissolved in enzyme buffer and incubated for 10 min before being added to 3% DMSO solutions of compounds in enzyme buffer. Incubated for another 10 minutes, before substrate solution is added and the reaction mixture is incubated at room temperature. 10 μL acceptor beads, suspended in Epigenetic Buffer (Perkin Elmer AL008) from stock, are added and the suspension is incubated in the dark at room temperature, before a suspension of streptavidin donor beads (Perkin Elmer 6760002) in Epigenetic Buffer is added. After incubation at room temperature in the dark the plates are read.
BK9M3: Biotin-ARTKQTAR(KMe3)STGGKAPRKQ-NH2 (Caslo, Denmark) […]
Substrate Solution: Substrate, 25 μM L-Asc, and 10 μM α-KG in Buffer A.

T1 sequence (Q9UPP1 37-440 limits assumed): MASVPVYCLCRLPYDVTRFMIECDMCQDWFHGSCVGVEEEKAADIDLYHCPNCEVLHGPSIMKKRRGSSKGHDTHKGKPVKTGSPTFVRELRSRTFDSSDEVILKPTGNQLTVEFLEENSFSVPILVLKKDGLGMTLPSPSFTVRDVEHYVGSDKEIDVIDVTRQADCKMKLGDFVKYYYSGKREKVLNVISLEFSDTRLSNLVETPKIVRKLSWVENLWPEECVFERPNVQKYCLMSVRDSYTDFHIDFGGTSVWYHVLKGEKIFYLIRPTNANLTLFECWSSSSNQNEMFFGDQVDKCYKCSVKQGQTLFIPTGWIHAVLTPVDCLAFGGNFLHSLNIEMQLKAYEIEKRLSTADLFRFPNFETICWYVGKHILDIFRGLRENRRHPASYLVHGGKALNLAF

Row | IC50 (KDM7 (PHF8)) [nM] | IC50 (KDM5B) [nM] | IC50 (KDM4B (JMJD2B)) [nM] | Structure (SMILES)
1 | > 2500 | < 250 | > 2500 | CN(C)CCCNCc1cc(/C=N/CCN(C)C)ccn1 [Compound 38, ({4-[{[2-(dimethylamino)ethyl]-imino}methyl]pyridin-2-yl}methyl)[3-(dimethylamino)-propyl]amine]
2 | < 250 | > 2500 | < 250 | CCSCCNCc1cc(/C=N/C2CC2)ccn1 [Compound 39, N-{[2-({[2-(ethylsulfanyl)-ethyl]amino}methyl)pyridin-4-yl]methylidene}-cyclopropanamine]
3 | > 2500 | 250 to 2500 | < 250 | CN(CCCNCc1cc(/C=N/C2CC2)ccn1)Cc1ccccc1 [Compound 41, N-({2-[({3-[benzyl(methyl)amino]-propyl}amino)methyl]-pyridin-4-yl}methylidene)-cyclopropanamine]
4 | 250 to 2500 | < 250 | < 250 | CN(C)C/C=C/CNCc1cc(/C=N/C2CC2)ccn1 [Compound 43, N-{[2-({[(2E)-4-(dimethylamino)but-2-en-1-yl]amino}-methyl)pyridin-4-yl]methylidene}-cyclopropanamine]
5 | > 2500 | < 250 | 250 to 2500 | CN(C)CCCCNCc1cc(/C=N\C2CC2)ccn1 [Compound 45, N-{[2-({[4-(dimethylamino)butyl]-amino}methyl)-pyridin-4-yl]methylidene}-cyclopropanamine]
6 | > 2500 | < 250 | 250 to 2500 | CN(C)CCCCCNCc1cc(/C=N/C2CC2)ccn1 [Compound 47, N-{[2-({[5-(dimethylamino)-pentyl]amino}-methyl)pyridin-4-yl]methylidene}-cyclopropanamine]
7 | < 250 | > 2500 | < 250 | CCN(CC)CCCCNC(=O)CNCc1cc(/C=N/C2CC2)ccn1 [Compound 48, 2-[({4-[N-cyclopropyl-carboximidoyl]pyridin-2-yl}methyl)amino]-N-[4-(diethylamino)-butyl]acetamide]

The remaining lines, values behind:

Row | Structure (SMILES) | IC50 (KDM7 (PHF8)) [nM] | IC50 (KDM5B) [nM] | IC50 (KDM4B (JMJD2B)) [nM]
8 | CN(C)C(=O)CNCc1cc(/C=N/CCCc2ccccc2)ccn1 [Compound 34, N,N-dimethyl-2-[({4-[[(3-phenylpropyl)imino]-methyl]pyridin-2-yl}methyl)amino]-acetamide] | > 2500 | 250 to 2500 | > 2500
9 | CC1CC1/N=C/c1ccnc(CNCC(=O)N(C)C)c1 (stereo not drawn) [Compound 35, N,N-dimethyl-2-[({4-[N-(2-methylcyclopropyl)-carboximidoyl]pyridin-2-yl}methyl)amino]-acetamide] | < 250 | 250 to 2500 | < 250
10 | CN(C)C(=O)CNCc1cc(/C=N/CCC2CCCCC2)ccn1 [Compound 36, 2-[({4-[[(2-cyclohexylethyl)imino]-methyl]pyridin-2-yl}methyl)amino]-N,N-dimethylacetamide] | 250 to 2500 | 250 to 2500 | < 250
11 | CN(C)CCC/N=C/c1ccnc(CNCCCN(C)C)c1 [Compound 37, [3-(dimethylamino)propyl]-({4-[{[3-(dimethylamino)propyl]-imino}methyl]pyridin-2-yl}methyl)amine] | > 2500 | < 250 | 250 to 2500
12 | CN1CCCC1CCNCc1cc(/C=N/C2CC2)ccn1 (stereo not drawn) [Compound 40, N-{[2-({[2-(l-methylpyrrolidin-2-yl)ethyl]amino}methyl)-pyridin-4-yl]methylidene}-cyclopropanamine] | > 2500 | < 250 | 250 to 2500
13 | C(=N/C1CC1)/c1ccnc(CNCCCN2CCCC2)c1 [Compound 42, N-{[2-({[3-(pyrrolidin-1-yl)propyl]amino}-methyl)pyridin-4-yl]methylidene}-cyclopropanamine] | > 2500 | < 250 | 250 to 2500
14 | CN(C)CC1CCC(CNCc2cc(/C=N/C3CC3)ccn2)CC1 (stereo not drawn) [Compound 46, N-[(2-{[({4-[(dimethylamino)-methyl]cyclohexyl}-methyl)amino]-methyl}pyridin-4-yl)methylidene]-cyclopropanamine] | > 2500 | < 250 | 250 to 2500
